In ChEMBL document CHEMBL4507282, “Data for DCP probe BI-1950” (2021):

What was measured:
[1] = molecular target: Casein kinase II subunit alpha' (Homo sapiens) (UniProt P19784); settings: Compound concentration 1000.0 nM
[2] = molecular target: Muscarinic acetylcholine receptor M1 (Homo sapiens) (UniProt P11229); settings: Compound concentration 10.0 uM
[3] = molecular target: Death-associated protein kinase 3 (Homo sapiens) (UniProt O43293); settings: Compound concentration 1000.0 nM
[4] = molecular target: Mitogen-activated protein kinase kinase kinase 1 (Homo sapiens) (UniProt Q13233); settings: Compound concentration 1000.0 nM
Mitogen-activated protein kinase kinase kinase 1 (Homo sapiens), sequence (Q13233 whole entry): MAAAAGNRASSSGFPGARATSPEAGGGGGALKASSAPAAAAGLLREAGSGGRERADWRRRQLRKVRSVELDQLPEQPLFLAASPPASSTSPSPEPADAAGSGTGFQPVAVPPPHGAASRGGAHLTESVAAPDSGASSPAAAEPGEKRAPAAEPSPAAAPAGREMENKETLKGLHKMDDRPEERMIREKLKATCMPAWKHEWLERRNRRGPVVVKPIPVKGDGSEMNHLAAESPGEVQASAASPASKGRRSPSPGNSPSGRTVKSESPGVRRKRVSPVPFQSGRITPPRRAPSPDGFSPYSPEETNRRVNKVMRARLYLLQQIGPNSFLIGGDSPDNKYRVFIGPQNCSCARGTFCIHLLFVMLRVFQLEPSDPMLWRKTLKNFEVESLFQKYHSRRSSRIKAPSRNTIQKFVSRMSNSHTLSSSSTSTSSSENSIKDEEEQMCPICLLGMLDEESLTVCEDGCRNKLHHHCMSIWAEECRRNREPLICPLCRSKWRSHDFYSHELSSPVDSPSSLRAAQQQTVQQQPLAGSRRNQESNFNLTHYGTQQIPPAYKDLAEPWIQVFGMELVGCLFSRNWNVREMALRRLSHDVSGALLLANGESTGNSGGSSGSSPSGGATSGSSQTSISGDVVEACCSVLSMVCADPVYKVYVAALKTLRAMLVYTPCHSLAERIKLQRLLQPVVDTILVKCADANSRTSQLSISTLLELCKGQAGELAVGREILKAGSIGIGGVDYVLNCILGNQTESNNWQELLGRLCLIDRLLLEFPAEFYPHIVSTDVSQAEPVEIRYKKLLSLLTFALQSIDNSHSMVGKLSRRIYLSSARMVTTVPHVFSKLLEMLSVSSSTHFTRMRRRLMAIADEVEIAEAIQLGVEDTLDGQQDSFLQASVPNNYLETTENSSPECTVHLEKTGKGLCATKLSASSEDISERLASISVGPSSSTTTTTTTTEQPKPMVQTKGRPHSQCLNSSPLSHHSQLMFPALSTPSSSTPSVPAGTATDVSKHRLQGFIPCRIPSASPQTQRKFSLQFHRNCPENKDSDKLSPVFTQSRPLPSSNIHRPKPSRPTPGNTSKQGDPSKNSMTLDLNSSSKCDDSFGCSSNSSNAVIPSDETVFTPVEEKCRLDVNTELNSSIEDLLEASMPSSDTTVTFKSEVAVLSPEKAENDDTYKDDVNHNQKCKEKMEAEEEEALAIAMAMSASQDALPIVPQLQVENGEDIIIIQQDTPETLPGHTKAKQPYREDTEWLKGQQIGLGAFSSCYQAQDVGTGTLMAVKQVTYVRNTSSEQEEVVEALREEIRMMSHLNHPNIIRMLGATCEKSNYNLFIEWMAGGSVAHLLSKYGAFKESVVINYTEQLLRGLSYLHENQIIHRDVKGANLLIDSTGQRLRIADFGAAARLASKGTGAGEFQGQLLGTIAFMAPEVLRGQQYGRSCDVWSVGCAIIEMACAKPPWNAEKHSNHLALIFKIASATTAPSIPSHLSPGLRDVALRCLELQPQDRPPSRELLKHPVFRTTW

[5] = molecular target: Casein kinase II subunit alpha (Homo sapiens) (UniProt P68400); settings: Compound concentration 1000.0 nM
[6] = molecular target: Cyclin-dependent kinase 5 (Homo sapiens) (UniProt Q00535); settings: Compound concentration 1000.0 nM
[7] = tested on: Proto-oncogene tyrosine-protein kinase receptor Ret (Homo sapiens), P07949 [V804M]; settings: Compound concentration 1000.0 nM
[8] = molecular target: Serine/threonine-protein kinase PknB (Mycobacterium tuberculosis) (UniProt P9WI81); settings: Compound concentration 1000.0 nM
[9] = molecular target: Cyclin-dependent kinase 2 (Homo sapiens) (UniProt P24941); settings: Compound concentration 1000.0 nM
[10] = molecular target: Interleukin-1 receptor-associated kinase 1 (Homo sapiens) (UniProt P51617); settings: Compound concentration 1000.0 nM
[11] = molecular target: Inhibitor of nuclear factor kappa-B kinase subunit alpha (Homo sapiens) (UniProt O15111); settings: Compound concentration 1000.0 nM
[12] = tested on: Mast/stem cell growth factor receptor Kit (Homo sapiens), P10721 [D816V]; settings: Compound concentration 1000.0 nM
[13] = molecular target: Serine/threonine-protein kinase Nek9 (Homo sapiens) (UniProt Q8TD19); settings: Compound concentration 1000.0 nM
[14] = molecular target: Testis-specific serine/threonine-protein kinase 3 (Homo sapiens) (UniProt Q96PN8); settings: Compound concentration 1000.0 nM
Testis-specific serine/threonine-protein kinase 3 (Homo sapiens), sequence (Q96PN8 whole entry): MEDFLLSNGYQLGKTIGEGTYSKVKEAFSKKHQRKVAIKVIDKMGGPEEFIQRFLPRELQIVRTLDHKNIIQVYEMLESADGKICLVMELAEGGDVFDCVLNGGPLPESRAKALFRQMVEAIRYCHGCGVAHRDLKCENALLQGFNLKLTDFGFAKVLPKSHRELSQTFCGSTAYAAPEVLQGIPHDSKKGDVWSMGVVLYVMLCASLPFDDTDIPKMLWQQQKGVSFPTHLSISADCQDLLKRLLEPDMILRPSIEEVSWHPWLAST

[15] = molecular target: Mitogen-activated protein kinase kinase kinase 14 (Homo sapiens) (UniProt Q99558); settings: Compound concentration 1000.0 nM
[16] = molecular target: Casein kinase I isoform alpha-like (Homo sapiens) (UniProt Q8N752); settings: Compound concentration 1000.0 nM
[17] = tested on: Epidermal growth factor receptor (Homo sapiens), P00533 [UNDEFINED MUTATION]; settings: Compound concentration 1000.0 nM
[18] = molecular target: BDNF/NT-3 growth factors receptor (Homo sapiens) (UniProt Q16620); settings: Compound concentration 1000.0 nM
[19] = molecular target: Tyrosine-protein kinase Tec (Homo sapiens) (UniProt P42680); settings: Compound concentration 1000.0 nM
Tyrosine-protein kinase Tec (Homo sapiens), sequence (P42680 whole entry): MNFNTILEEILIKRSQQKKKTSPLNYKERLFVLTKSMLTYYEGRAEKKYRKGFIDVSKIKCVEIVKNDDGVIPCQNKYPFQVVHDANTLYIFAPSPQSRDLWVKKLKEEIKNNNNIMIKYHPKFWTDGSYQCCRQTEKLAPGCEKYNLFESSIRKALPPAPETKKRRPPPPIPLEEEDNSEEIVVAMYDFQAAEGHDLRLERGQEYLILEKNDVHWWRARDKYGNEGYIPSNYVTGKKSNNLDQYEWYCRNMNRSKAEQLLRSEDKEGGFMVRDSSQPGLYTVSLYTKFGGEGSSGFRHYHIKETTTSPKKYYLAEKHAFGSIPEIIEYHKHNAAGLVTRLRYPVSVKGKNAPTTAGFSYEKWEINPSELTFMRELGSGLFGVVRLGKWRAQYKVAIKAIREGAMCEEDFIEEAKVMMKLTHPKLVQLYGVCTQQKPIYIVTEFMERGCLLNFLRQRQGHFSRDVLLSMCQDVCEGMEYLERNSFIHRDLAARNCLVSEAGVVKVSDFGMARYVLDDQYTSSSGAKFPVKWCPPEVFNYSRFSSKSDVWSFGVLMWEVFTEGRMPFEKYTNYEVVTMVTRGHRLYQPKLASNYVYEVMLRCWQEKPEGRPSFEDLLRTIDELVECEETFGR

[20] = molecular target: Cyclin-dependent kinase-like 3 (Homo sapiens) (UniProt Q8IVW4); settings: Compound concentration 1000.0 nM
Cyclin-dependent kinase-like 3 (Homo sapiens), sequence (Q8IVW4 whole entry, looked up, canonical isoform): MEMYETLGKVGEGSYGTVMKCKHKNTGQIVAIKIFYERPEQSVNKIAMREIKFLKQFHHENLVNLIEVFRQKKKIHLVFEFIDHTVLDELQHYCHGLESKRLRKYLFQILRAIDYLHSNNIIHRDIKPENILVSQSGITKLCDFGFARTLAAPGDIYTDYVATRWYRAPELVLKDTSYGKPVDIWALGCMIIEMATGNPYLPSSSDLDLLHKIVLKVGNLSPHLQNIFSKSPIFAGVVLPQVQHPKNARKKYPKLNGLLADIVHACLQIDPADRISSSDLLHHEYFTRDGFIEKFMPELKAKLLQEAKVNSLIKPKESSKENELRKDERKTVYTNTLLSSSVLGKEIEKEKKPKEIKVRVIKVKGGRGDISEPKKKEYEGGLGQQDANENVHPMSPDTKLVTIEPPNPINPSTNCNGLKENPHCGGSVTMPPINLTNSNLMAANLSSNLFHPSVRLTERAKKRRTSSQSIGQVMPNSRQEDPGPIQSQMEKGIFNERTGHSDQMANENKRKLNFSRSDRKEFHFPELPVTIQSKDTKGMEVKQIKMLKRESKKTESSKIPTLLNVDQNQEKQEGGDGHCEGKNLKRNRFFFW

[21] = molecular target: Casein kinase I isoform gamma-2 (Homo sapiens) (UniProt P78368); settings: Compound concentration 1000.0 nM
Casein kinase I isoform gamma-2 (Homo sapiens), sequence (P78368 whole entry, looked up, canonical isoform): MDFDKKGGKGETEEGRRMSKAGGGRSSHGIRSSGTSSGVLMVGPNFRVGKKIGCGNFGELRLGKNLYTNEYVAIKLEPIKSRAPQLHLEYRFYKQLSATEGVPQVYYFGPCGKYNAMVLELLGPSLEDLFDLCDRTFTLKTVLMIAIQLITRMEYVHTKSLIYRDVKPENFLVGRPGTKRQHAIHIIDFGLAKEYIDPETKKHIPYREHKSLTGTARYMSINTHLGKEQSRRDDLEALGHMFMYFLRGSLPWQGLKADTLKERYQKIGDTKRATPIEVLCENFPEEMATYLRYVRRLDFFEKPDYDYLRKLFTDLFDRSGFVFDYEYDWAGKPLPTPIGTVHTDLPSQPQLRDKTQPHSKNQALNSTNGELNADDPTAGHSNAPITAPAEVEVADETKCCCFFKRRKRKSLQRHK

[22] = molecular target: Hormonally up-regulated neu tumor-associated kinase (Homo sapiens) (UniProt P57058); settings: Compound concentration 1000.0 nM
tissue or blood = type: tissue-based; settings: Homo sapiens
[23] = molecular target: STE20-like serine/threonine-protein kinase (Homo sapiens) (UniProt Q9H2G2); settings: Compound concentration 1000.0 nM
[24] = tested on: Phosphatidylinositol 4,5-bisphosphate 3-kinase catalytic subunit alpha isoform (Homo sapiens), P42336 [I800L]; settings: Compound concentration 1000.0 nM
[25] = molecular target: Cyclin-dependent kinase 19 (Homo sapiens) (UniProt Q9BWU1); settings: Compound concentration 1000.0 nM
[26] = molecular target: Serine/threonine-protein kinase NLK (Homo sapiens) (UniProt Q9UBE8); settings: Compound concentration 1000.0 nM
[27] = molecular target: Tyrosine-protein kinase TXK (Homo sapiens) (UniProt P42681); settings: Compound concentration 1000.0 nM
Tyrosine-protein kinase TXK (Homo sapiens), sequence (P42681 whole entry): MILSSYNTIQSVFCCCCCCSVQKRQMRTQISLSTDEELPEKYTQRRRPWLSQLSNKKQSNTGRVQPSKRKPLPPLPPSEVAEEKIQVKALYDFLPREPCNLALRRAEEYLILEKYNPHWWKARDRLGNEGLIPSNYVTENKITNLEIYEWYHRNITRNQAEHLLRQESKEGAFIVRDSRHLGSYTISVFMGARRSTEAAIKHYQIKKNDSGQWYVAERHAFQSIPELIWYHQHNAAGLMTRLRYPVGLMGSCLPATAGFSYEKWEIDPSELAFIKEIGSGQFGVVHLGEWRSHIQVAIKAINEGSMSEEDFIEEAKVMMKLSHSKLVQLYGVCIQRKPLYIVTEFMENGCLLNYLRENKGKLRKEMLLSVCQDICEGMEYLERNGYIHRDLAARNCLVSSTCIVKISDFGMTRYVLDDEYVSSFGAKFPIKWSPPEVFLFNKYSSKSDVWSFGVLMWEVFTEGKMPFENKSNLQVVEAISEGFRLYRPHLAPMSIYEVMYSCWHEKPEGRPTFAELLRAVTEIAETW

[28] = molecular target: Voltage-dependent N-type calcium channel subunit alpha-1B (Rattus norvegicus) (UniProt Q02294); experiment: CA+/N/RA Eurofins-Panlabs selectivity data (BI); settings: Compound concentration 10.0 uM
[29] = molecular target: Gamma-aminobutyric acid receptor subunit alpha-1 (Rattus norvegicus) (UniProt P62813); experiment: GABAACENTR Eurofins-Panlabs selectivity data (BI); settings: Compound concentration 10.0 uM
Gamma-aminobutyric acid receptor subunit alpha-1 (Rattus norvegicus), sequence (P62813 whole entry): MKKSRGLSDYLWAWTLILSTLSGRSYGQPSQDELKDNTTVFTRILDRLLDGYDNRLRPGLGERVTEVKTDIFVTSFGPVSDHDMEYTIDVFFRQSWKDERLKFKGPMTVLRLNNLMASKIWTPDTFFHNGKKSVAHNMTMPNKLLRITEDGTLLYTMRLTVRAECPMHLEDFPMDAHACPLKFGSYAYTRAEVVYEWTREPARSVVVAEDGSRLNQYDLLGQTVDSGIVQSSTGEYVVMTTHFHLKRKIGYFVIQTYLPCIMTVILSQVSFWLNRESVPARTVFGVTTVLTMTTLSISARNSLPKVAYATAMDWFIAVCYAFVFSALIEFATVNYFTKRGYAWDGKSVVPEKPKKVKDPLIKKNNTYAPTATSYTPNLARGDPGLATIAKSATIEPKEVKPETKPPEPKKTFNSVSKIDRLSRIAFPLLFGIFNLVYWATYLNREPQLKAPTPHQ

[30] = molecular target: Gamma-aminobutyric acid receptor subunit alpha-1 (Rattus norvegicus) (UniProt P62813); experiment: GABAA MUSCIMOL CENT Eurofins-Panlabs selectivity data (BI); settings: Compound concentration 10.0 uM
[31] = molecular target: Voltage-dependent L-type calcium channel subunit alpha-1C (diltiazem site) (Rattus norvegicus, UniProt P22002); experiment: CA+/DILSI/RA Eurofins-Panlabs selectivity data (BI); settings: compound concentration 10 uM, read-out: % Ctrl
[32] = molecular target: 5-hydroxytryptamine receptor 1A (Homo sapiens) (UniProt P08908); settings: Compound concentration 10.0 uM
[33] = molecular target: Sodium channel regulatory subunit beta-1 (Rattus norvegicus) (UniProt Q00954); experiment: NA+/SITE2/RA Eurofins-Panlabs selectivity data (BI)
Sodium channel regulatory subunit beta-1 (Rattus norvegicus), sequence (Q00954 whole entry): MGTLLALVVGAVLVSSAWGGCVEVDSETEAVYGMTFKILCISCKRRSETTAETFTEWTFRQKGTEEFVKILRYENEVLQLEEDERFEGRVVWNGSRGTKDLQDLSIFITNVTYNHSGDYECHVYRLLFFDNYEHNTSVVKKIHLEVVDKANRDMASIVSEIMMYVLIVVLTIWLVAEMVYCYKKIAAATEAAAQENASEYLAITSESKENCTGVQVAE

[34] = molecular target: Beta-3 adrenergic receptor (Homo sapiens) (UniProt P13945); settings: Compound concentration 10.0 uM
[35] = molecular target: D(3) dopamine receptor (Homo sapiens) (UniProt P35462); experiment: D3/HU Eurofins-Panlabs selectivity data (BI); settings: Compound concentration 10.0 uM
[36] = molecular target: Histamine H1 receptor (Homo sapiens) (UniProt P35367); experiment: H1/H Eurofins-Panlabs selectivity data (BI); settings: Compound concentration 10.0 uM
[37] = molecular target: GABA B receptor (Rattus norvegicus) (UniProt Q9Z0U4+O88871); experiment: GABAB/RA Eurofins-Panlabs selectivity data (BI); type: protein-complex assay; settings: Compound concentration 10.0 uM
[38] = molecular target: Sigma non-opioid intracellular receptor 1 (Homo sapiens) (UniProt Q99720); settings: Compound concentration 10.0 uM
[39] = molecular target: Type-1 angiotensin II receptor (Oryctolagus cuniculus) (UniProt P34976); experiment: AT1 Eurofins-Panlabs selectivity data (BI); settings: Homo sapiens; Compound concentration 10.0 uM
[40] = molecular target: Potassium voltage-gated channel subfamily A member 1 (Rattus norvegicus) (UniProt P10499); experiment: K+/KA/R Eurofins-Panlabs selectivity data (BI); settings: Compound concentration 10.0 uM
Rattus norvegicus = species: Rattus norvegicus; settings: Compound concentration 10.0 uM
[41] = molecular target: D(1A) dopamine receptor (Homo sapiens) (UniProt P21728); experiment: D1/HU Eurofins-Panlabs selectivity data (BI); settings: Compound concentration 10.0 uM
[42] = molecular target: Calcitonin-gene-related peptide receptor, CALCRL/RAMP1 (Homo sapiens) (UniProt O60894+Q16602); experiment: CGRP/HU Eurofins-Panlabs selectivity data (BI); type: protein-complex assay; settings: Compound concentration 10.0 uM

Casein kinase II subunit alpha' (Homo sapiens), sequence (P19784 whole entry, looked up): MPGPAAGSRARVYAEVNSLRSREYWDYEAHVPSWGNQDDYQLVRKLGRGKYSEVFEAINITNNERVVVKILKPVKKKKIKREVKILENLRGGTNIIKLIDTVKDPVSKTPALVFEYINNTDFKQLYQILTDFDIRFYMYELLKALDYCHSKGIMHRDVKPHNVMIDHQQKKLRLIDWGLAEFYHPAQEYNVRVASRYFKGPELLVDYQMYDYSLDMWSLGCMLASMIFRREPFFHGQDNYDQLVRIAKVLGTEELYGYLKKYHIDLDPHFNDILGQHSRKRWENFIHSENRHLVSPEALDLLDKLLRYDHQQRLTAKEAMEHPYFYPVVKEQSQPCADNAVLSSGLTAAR

C[C@@]1(Cc2ccc(C#N)cc2)C(=O)N(c2cc(Cl)cc(Cl)c2)c2ncc(C(=O)NC3(c4nc(C5CCC5)no4)CC3)n21 [BI 9446]
residual activity [1]: 100%
inhibition [2]: -8.37%
residual activity [3]: 94%
residual activity [4]: 100%
residual activity [5]: 91%
residual activity [6]: 100%
residual activity [7]: 100%
residual activity [8]: 96%
residual activity [9]: 100%
residual activity [10]: 100%
residual activity [11]: 100%
residual activity [12]: 100%
residual activity [13]: 86%
residual activity [14]: 100%
residual activity [15]: 100%
residual activity [16]: 89%
residual activity [17]: 100%
residual activity [18]: 100%
residual activity [19]: 92%
residual activity [20]: 100%
residual activity [21]: 91%
residual activity [22]: 100%
IC50 (tissue or blood): > 1000 nM
residual activity [23]: 100%
residual activity [24]: 88%
residual activity [25]: 76%
residual activity [26]: 100%
residual activity [27]: 100%

C[C@H](NC(=O)c1cnc2n1[C@](C)(Cc1ccc(C#N)cc1)C(=O)N2c1cc(Cl)c(F)c(Cl)c1)C(=O)NC1(c2ccccn2)CC1 [BI 1950]
residual activity [1]: 99%
residual activity [28]: 102%
residual activity [29]: 99%
residual activity [30]: 96%
activity at 10 µM [31]: 69% (not active)
residual activity [3]: 97%
residual activity [4]: 100%
inhibition [32]: -9.74%
residual activity ([33]; Compound concentration 0.03 uM): 103%
residual activity ([33]; Compound concentration 0.1 uM): 86%
residual activity ([33]; Compound concentration 0.3 uM): 84%
residual activity ([33]; Compound concentration 1.0 uM): 75%
residual activity ([33]; Compound concentration 3.0 uM): 67%
residual activity ([33]; Compound concentration 10.0 uM): 42%
residual activity [5]: 81%
residual activity [6]: 100%
inhibition [34]: 12.4%
residual activity [35]: 88%
residual activity [7]: 100%
residual activity [8]: 100%
residual activity [9]: 100%
residual activity [10]: 100%
residual activity [11]: 100%
residual activity [36]: 109%
residual activity [37]: 111%
residual activity [12]: 100%
residual activity [13]: 100%
residual activity [14]: 100%
residual activity [15]: 100%
inhibition [38]: -6.44%
residual activity [16]: 100%
residual activity [17]: 100%
residual activity [18]: 100%
residual activity [19]: 75%
residual activity [20]: 100%
residual activity [39]: 90%
residual activity [21]: 90%
residual activity [40]: 92%
residual activity [22]: 100%
inhibition (Rattus norvegicus): 13.1%
residual activity [41]: 92%
residual activity [23]: 100%
residual activity [24]: 100%
residual activity [25]: 81%
residual activity [26]: 100%
residual activity [42]: 105%
residual activity [27]: 90%
